Seven compounds from patent publication US20090023801A1, “INHIBITORS OF BETA AMYLOID PRODUCTION” (Wyeth, priority 2007, published 2009) can be followed below.

SMILES strings stand for the structures. Like-named read-outs stand apart in the source and are kept apart here. Where only a bound is given, the exact number is not on record here.

One series has as its system Aβ42. Briefly: Aβ-lowering MSD electrochemiluminescent assay of conditioned media from CHO cells expressing human APP (Aβ42). Type of series: cell-based. The method, then: (§1) The activity of compounds in lowering the generation of Aβ40 and Aβ42, the most abundant forms of beta amyloid, from APP (amyloid precursor protein) was measured in an electrochemiluminescent (ECL) assay of conditioned media from chinese hamster ovary (CHO) cells stably expressing the human amyloid precursor protein (APP) reporter construct, hAPP-REPNL751 (Sughir, R. et al.; J. Biolog. Chem (1992) 267: 25602-25608). Aβ peptides were secreted at high levels into cell culture media by cells carrying the human APP transgene; compounds were tested for their capacity to modulate this production. The Aβ peptide in the conditioned medium was quantitated by a sandwich immunoassay with the MSD ECL detection system. Cell metabolism was measured using a 3-(4,5-dimethylthiazol-2-yl)-5-(3-carboxymethoxypheny)-2-(4-sulfophenyl)-2H-tetrazolium, inner salt (MTS) salt kit (which measures the mitochondrial activity of cells by the bioreduction of Owen's reagent). This assay consists of the following protocol:
(§2) 1. hAPP-REPNL751CHO cells were seeded into 96 well plates and incubated until about 60-70% confluence.
(§3) 2. Medium was removed, cells were washed, and fresh serum-free medium (Ultraculture) was put on cells.
(§4) 3. Compounds were diluted and then added to the cell medium.
(§5) 4. Cells were incubated, with compounds, for indicated times.
(§6) 5. Streptavidin coated Meso Scale Discover (MSD) plates (MSD standard MULTI-ARRAY® 96 plate, cat.# P11SA-1) were washed […] with TTBS (Tris-buffered saline, the TWEEN® 20 reagent).
(§7) 6. 20 μL conditioned medium were removed from the cells and added to the TTBS prewashed MSD plates.
(§8) 7. Standard curve dilutions of synthetic Aβ40 and Aβ42 were prepared and added to the MSD plates.
(§9) 8. A reagent mix was prepared in 1% MSD Blocker A (appropriate concentration of biotinylated 6E10 antibody, detection antibodies to Aβ40, Aβ42, and MSD ruthinylated tag antibody).
(§10) 9. 20 μL reagent mix was distributed to sample plate.
(§11) 10. Plates were incubated with shaking overnight at 4° C.
(§12) 11. Plates were washed 3× with TTBS.
(§13) 12. 150 μL read buffer was added per well (MSD® Read Buffer T, cat#R92TC-2, made 1× with distilled water).
(§14) 13. Plates were read in a MSD® plate reader within 2 hours.
(§15) Assays were accepted or rejected based upon specific performance criteria, including regression coefficient of standard curve, adequate signal to noise ratio, sample signals lying within the range of the standard curve, etc.: the specific parameters were established for each tissue type prior to performing an assay, and were included in the full analytical procedure.
(§16) Plate data from both assays (MTS and MSD® ELISA) were transferred into a Microsoft EXCEL® spreadsheet to determine the toxicity, and inhibition caused by the compounds. Standard curves of Aβ were generated using LSW™ toolbar Hill slope model 42, with 1/y weighting (general sigmoidal curve with Hill slope, a to d; y=(a−d)/(1+(x/c)̂b)+d). Inhibition data were expressed as a percent of the average of the Aβ values in the vehicle treated wells (all values are background subtracted), using LSW™ toolbar Hill Slope model 68 (ligand-receptor binding/sigmoidal, with Hill slope and Bmax to 0; y=Bmax*(1−(x̂n/(K̂n+x̂n))), after raw values were translated/transformed into absolute Aβ values utilizing the standard curve generated as described above (e.g. back calculate absolute Aβ values from the raw values utilizing standard curve). Onboard controls to verify assay performance were checked to assure that amyloid is within linear detection range of the assay, that cells were expressing correctly, and that the MSD itself was performing according to quality control (QC) standards.
(§17) % Inhibition>50% may be considered a positive response or an interesting result in this assay; EC50 determination were determined.
(§18) The beta amyloid inhibitory activity of compounds of formula (I) was determined using the MSD ECL assay. Inhibition of Notch processing was measured using the stable transfection reporter assay See, Table 1 below.

Another series concerns Aβ40. Briefly: Aβ-lowering MSD electrochemiluminescent assay of conditioned media from CHO cells expressing human APP (Aβ40). Type of series: cell-based. The method, then: as §1, §2, §3, §4, §5, §6, §7, §8, §9, §10, §11, §12, §13, §14, §15, §16, §17, §18
Another series deals with Notch. The series can be described thus: Stable transfection Notch reporter assay (HES1-SEAP, P8H6 CHO-K1 cells). Type of series: cell-based. Conditions: CHO-K1.
Excerpt: A concern with compounds that lower beta amyloid synthesis by targeting the γ-secretase enzyme is that this enzyme also is involved in the cleavage of other substrates besides APP especially the Notch substrate. […] Thus, a selectivity of APP cleavage over Notch cleavage is desired in order to avoid G.I. side effects. The activity of compounds in cleaving Notch can be measured in a whole cell functional Notch assay. This is an assay to determine the effects of compounds on the S3 (γ-secretase like) processing of Notch. […] SEAP transactivation is then detected by luminescent assay. The assay consists of the following protocol:
• (i) Materials: The P8H6 inducible stable cell line was derived from T-REX™ CHO-K1, stably expressing Tet repressor, Notch (pZX1) and HES1-SEAP (pZX2) reporter constructs. A Wallac 1450 Victor™ Luminescence Counter was used to measure luminescent signal. All other materials and reagents were of highest quality available and were all from commercial sources.
(ii) Construct Description: • pZX1: Mouse Notch1 with deleted extracellular domain cloned at Hind III/Xho I sites of pcDNA5/TO vector: Ampicillin Resistance for bacteria, hygromycin resistance for cells. • pZX2: Mouse HES1 promoter together with reporter gene SEAP cloned at Not I/Apa I sites of pcDNA3.1 with deletion of CMV promoter.
(iii) Procedure: • 1. P8H6 cells were grown in Ham's F12 complete growth media containing 10% FBS (reduced tetracycline), 2 mM of L-glutamine, 1 mg/mL of hygromycin, 1 mg/mL of the GENETICIN® antibiotic, 10 μg/mL of Blasticidin and 1% Penicillin-Streptomycin were supplemented with doxycline with final induction concentration of 0.2 μg/mL. The cells were seeded in 96-well tissue culture plate at 8000/well. • 2. Test compounds in 0.2% DMSO/25 mM HEPES buffer were diluted at final working concentration of 20 μM, 6.7 μM, 2.2 μM, 741 nM, 247 nM, 82 nM, 27 nM, 9 nM and 3 nM. Diluted compounds then were added to P8H6 cells in 96-well tissue culture plates. For vehicle samples, the same volume of 0.2% DMSO/25 mM HEPES buffer was added. • 3. Cells were incubated at 37° C., 5% CO2 for 48 hours. • 4. SEAP levels in the conditioned media were assessed using the Clontech GREATESCAPE™ SEAP Chemiluminescence detection kit according to the manufacturer's instruction. Briefly, 15 μL of conditioned media were mixed with 45 μL of the dilution buffer and incubated at 65° C. for 45 minutes. After cooling, assay buffer was added and the sample was incubated with the CSPD® substrate. • 5. Luminescence was measured in a Wallac 1450 VICTOR™ luminescence counter.
EC50 was the compound concentration that was estimated to provide a 50% reduction of maximum response in Notch induced SEAP levels. An EC50 from a given assay may only be used for averaging if it has met the following criteria: • 1. There is a lower dose in the assay which gives a % Notch Activity>60% (bracketing lower dose). • 2. There is a higher dose in the assay which gives a % Notch Activity<30% (bracketing higher dose), and the maximum inhibition is reached (e.g., a given compound might achieve 80% inhibition (% Notch activity is about 20%) over several doses, and therefore 20% would be considered the maximum inhibition.
Data were analyzed in Microsoft EXCEL® format. EC50 was calculated by LSW using sigmoidal inhibition from B0 to nsb model (model 59). Each assay plate contained a dose response curve for the reference compound 5-chloro-N-[(1S,2R)-2-ethyl-4,4,4-trifluoro-1-(hydroxymethyl)butyl]thiophene-2-sulfonamide. This compound is discussed in International Patent Publication No. WO 2004/092155. The following data is not shown in that publication.
as §18

[1] abbreviates: MSD electrochemiluminescent assay, hAPP-REPNL751 CHO cells, read-out: Aβ42 EC50 for inhibition of Aβ42.
The mark [2] stands for this setting: MSD electrochemiluminescent assay, hAPP-REPNL751 CHO cells, read-out: Aβ40 EC50 for inhibition of Aβ40.
[3] abbreviates: stable transfection Notch reporter assay, 48 hours, read-out: Notch EC50 for inhibition of Notch.
[4] abbreviates: CHO, beta amyloid assay reference compounds, read-out: EC50 Aβ42.
Where [5] appears, read: CHO, beta amyloid assay reference compounds, read-out: EC50 Aβ40.
The mark [6] stands for this setting: Notch assay reference compounds, read-out: EC50 (Notch assay).

Consider `O=S(=O)(N[C@H](CO)[C@H](c1ccc(Cl)cc1)C(F)(F)F)c1ccc(Cl)s1` (relative stereo) [Example 14, 5-Chloro-N-[(1S*,2S*)-2-(4-chlorophenyl)-3,3,3-trifluoro-1-(hydroxymethyl)propyl]thiophene-2-sulfonamide], for which the EC50 – broadly, the midpoint of the concentration-response curve – was 2280 nM with Aβ42 (setting [1]), 2360 nM in the series with Aβ40 (setting [2]) and more than 20000 nM in the series with Notch (setting [3]).

As to `O=S(=O)(N[C@H](CO)[C@H](c1ccccc1)C(F)(F)F)c1ccc(Cl)s1` (stereo in doubt) [Example 5, 5-Chloro-N-[(1S*,2S*)-3,3,3-trifluoro-1-hydroxymethyl-2-phenylpropyl]thiophene-2-sulfonamide], the EC50 in the series on Aβ42 (setting [1]) is 7200 nM; in the series with Aβ40 (setting [2]), 7520 nM; with Notch (setting [3]) it was more than 20000 nM.

In the case of `CC[C@H](CC(F)(F)F)[C@@H](CO)NS(=O)(=O)c1ccc(Cl)s1` [5-chloro-N-[(1S,2R)-2-ethyl-4,4,4-trifluoro-1-(hydroxymethyl)butyl]thiophene-2-sulfonamide, reference compound], the EC50 in the series on Aβ42 (setting [4]) is 5 nM; with Aβ40 (setting [5]) it was 6 nM; in the series on Notch (setting [6]), 225 nM.

For the compound `CC(C)[C@H](O)C(=O)N[C@@H](C)C(=O)N[C@@H]1C(=O)N(C)CCc2ccccc21` [(2S)-2-hydroxy-3-methyl-N-((1S)-1-methyl-2-{[(1S)-3-methyl-2-oxo-2,3,4,5-tetrahydro-1H-3-benzazepin-1-yl]amino}-2-oxoethyl)butanamide, reference compound], the EC50 in the series with Aβ42 (setting [4]) was 79 nM; with Aβ40 (setting [5]), 109 nM; with Notch (setting [6]), 68 nM.

`O=S(=O)(NC(CO)C(c1ccccc1)C(F)(F)F)c1ccc(Cl)s1` (stereo not shown) [Example 1, 5-Chloro-N-[3,3,3-trifluoro-1-(hydroxymethyl)-2-phenylpropyl]thiophene-2-sulfonamide]: the values for the EC50 in the series with Aβ42 (setting [1]), in the series on Aβ40 (setting [2]) and in the series on Notch (setting [3]) were 760 nM, 710 nM and more than 20000 nM, respectively.

Turning to `O=S(=O)(N[C@H](CO)[C@@H](c1ccccc1)C(F)(F)F)c1ccc(Cl)s1` [Example 4, 5-Chloro-N-[(1S,2R)-3,3,3-trifluoro-1-(hydroxymethyl)-2-phenylpropyl]thiophene-2-sulfonamide], the EC50 with Aβ42 (setting [1]) was determined as 197 nM; in the series with Aβ40 (setting [2]), 238 nM; with Notch (setting [3]), 3750 nM.

`O=S(=O)(N[C@H](CO)[C@@H](c1ccccc1)C(F)(F)F)c1ccc(Cl)cc1` [Example 6, 4-Chloro-N-[(1S,2R)-3,3,3-trifluoro-1-(hydroxymethyl)-2-phenylpropyl]benzenesulfonamide]: the melting point (usually the temperature, or range, at which the solid turns liquid) is 129 to 131 °C. Besides, the EC50 in the series on Aβ42 (setting [1]) is 1900 nM. For the same compound, the EC50 in the series with Aβ40 (setting [2]) came out at 1330 nM. Besides, the EC50 in the series with Notch (setting [3]) was more than 20000 nM.
